For series [1], the target named is T1, human CB1R (Homo sapiens, UniProt P21554).
T1 construct: expressed in transfected cells; host or cells: CHO cells (crude membrane fractions)
The experiment in a line: Human CB receptor binding inhibition ([3H]CP55940), CB1R. Particulars: membranes of CB1R-expressing CHO cells, 0.5 nM [3H]CP55940, 2 hr at 25° C.; read-out: CB receptor binding inhibition Ki CB1. The protocol:
(§1) The crude membrane fractions were then prepared from the CB1R or CB2R-expressing CHO cells. Receptor binding assay was performed by incubating the membranes with each test compound and 38,000 dpm [^3H]CP55940 (at a final concentration of 0.5 nM: PerkinElmer Life & Analytical Sciences) in the assay buffer (50 mM Tris-HCl, […], 3 mM MgCl2, pH 7.4) containing 0.5% bovine serum albumin (BSA) for 2 hr at 25° C. The incubation mixture was filtered through 1% polyethylenimine (PEI)-treated GF/C glass filter and washed with 50 mM Tris-HCl (pH 7.4) containing 0.1% BSA. The radioactivity was then counted with a liquid scintillation counter. Nonspecific binding was determined in the presence of 10 μM WIN55212-2 (a CBR agonist described in the patent U.S. Pat. No. 508,122, Sigma), and the specific binding was calculated by subtracting the nonspecific binding from the total binding. The IC50 value for each test compound was determined as the concentration at which 50 % of the specific binding was inhibited. As a consequence of these studies, the Ki values of each test compound were determined from the IC50 value and the Kd vale of [^3H]CP55940.

Series [2] concerns the target T2, human CB2R (Homo sapiens, UniProt P34972).
T2 construct: expressed in transfected cells; host or cells: CHO cells (crude membrane fractions)
The experiment in a line: Human CB receptor binding inhibition ([3H]CP55940), CB2R. Particulars: membranes of CB2R-expressing CHO cells, 0.5 nM [3H]CP55940, 2 hr at 25° C.; read-out: CB receptor binding inhibition Ki CB2. On the procedure: as §1

Series [3] has as its target T1, human CB1R. The experiment in a line: CBR-mediated suppression of forskolin-stimulated cAMP synthesis, CHO cells expressing CB1R. Type of series: cell-based. The following applies: 4 μM forskolin, read-out: Inhibition of cAMP synthesis IC50 CB1. On the procedure:
(§2) The CHO cells expressing human CB1R or CB2R were incubated with test compounds for 15 min. After the incubation, 4 μM forskolin (Sigma) was added and the cells were incubated for 20 min. The reaction was stopped by the addition of 1N HCl and the amount of cAMP in the cell supernatant was measured using an Cyclic AMP kit (CIS bio international) according to the manufacture's protocol. The cAMP amount increased by forskolin compared to that in the absence of forskolin was defined as 100%, and the IC50 value of each test compound was determined as the concentration at which 50% of the forskolin-stimulated cAMP synthesis was inhibited.

In series [4] the target is T2, human CB2R. The experiment in a line: CBR-mediated suppression of forskolin-stimulated cAMP synthesis, CHO cells expressing CB2R. The following applies: 4 μM forskolin, read-out: Inhibition of cAMP synthesis IC50 CB2. Format: cell-based. The protocol:
as §2

The test system of series [5] is formalin-induced hyperalgesia in ICR mice. The experiment in a line: Inhibitory effect against formalin-induced hyperalgesia in ICR mice. Type of series: in vivo. Particulars: Mus musculus, male ICR mice, oral administration 2 h prior to formalin. The protocol: The inhibitory effects of the compounds of the present invention against formalin-induced hyperalgesia were examined in male ICR mice (5 W). Test compounds were dissolved in sesami oil and applied orally 2 h prior to the subcutaneous formalin injection (2% 20 μL) into the right hind paw. In this experiment, observation period was set to 30 min and divided into two parts, the first 5 minutes immediately after the formalin injection (first phase) and 10 to 30 min minutes after the formalin injection (second phase). The strength for pain sensation was evaluated by the total time for licking and biting behavior. The inhibitory effect of the test compounds on such behavior was evaluated and the ED50 value was calculated.

Series [6] deals with compound 48/80-induced pruritus in ICR strain mice. The experiment in a line: Inhibitory effect on compound 48/80-induced pruritus in ICR strain mice. Format: in vivo. Particulars: Mus musculus, po, 0.5 h; female ICR strain mice, orally administered once, scratching counted for 30 min; read-out: anti-pruritic effect ED50. On the procedure: The experiment was carried out by the method of Inagaki et al. (Eur J Pharmacol 1999;367:361-371) with some modifications. Briefly, the back of female ICR strain mice was clipped, and compound 48/80 (3 μg/50 μL/site) was injected intradermally to elicit the response. The number of scratching behavior to the injection site by hind paws, which was observed immediately after the injection, was counted for 30 min. Test compounds, dissolved in sesame oil, were orally administered once. […] the injection of compound 48/80 at pre-determine time when the maximal plasma concentration of the compound was obtained. The inhibitory effect against pruritus was evaluated by comparing the number of scratching in the compound-administered group with that in the vehicle-administered group, and then ED50 value was calculated.

Setting [7] is: 10 to 30 min after formalin injection, read-out: Inhibitory effect against formalin-induced hyperalgesia (ED50) Second phase.
The mark [8] stands for this setting: first 5 minutes after formalin injection, read-out: Inhibitory effect against formalin-induced hyperalgesia (ED50) First phase.

Molecules are shown by their SMILES. Like-named read-outs stand apart in the source and are kept apart here.

T2 sequence (P34972 whole entry): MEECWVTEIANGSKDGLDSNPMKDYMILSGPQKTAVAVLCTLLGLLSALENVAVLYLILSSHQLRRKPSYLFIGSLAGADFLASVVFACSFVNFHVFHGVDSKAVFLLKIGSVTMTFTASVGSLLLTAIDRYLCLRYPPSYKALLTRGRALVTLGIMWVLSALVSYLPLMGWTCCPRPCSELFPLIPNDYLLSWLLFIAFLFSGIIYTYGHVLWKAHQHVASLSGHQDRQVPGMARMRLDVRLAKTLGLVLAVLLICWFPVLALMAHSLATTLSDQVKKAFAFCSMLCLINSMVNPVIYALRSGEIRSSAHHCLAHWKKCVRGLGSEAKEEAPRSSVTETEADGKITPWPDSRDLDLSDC
T1 sequence (P21554 whole entry): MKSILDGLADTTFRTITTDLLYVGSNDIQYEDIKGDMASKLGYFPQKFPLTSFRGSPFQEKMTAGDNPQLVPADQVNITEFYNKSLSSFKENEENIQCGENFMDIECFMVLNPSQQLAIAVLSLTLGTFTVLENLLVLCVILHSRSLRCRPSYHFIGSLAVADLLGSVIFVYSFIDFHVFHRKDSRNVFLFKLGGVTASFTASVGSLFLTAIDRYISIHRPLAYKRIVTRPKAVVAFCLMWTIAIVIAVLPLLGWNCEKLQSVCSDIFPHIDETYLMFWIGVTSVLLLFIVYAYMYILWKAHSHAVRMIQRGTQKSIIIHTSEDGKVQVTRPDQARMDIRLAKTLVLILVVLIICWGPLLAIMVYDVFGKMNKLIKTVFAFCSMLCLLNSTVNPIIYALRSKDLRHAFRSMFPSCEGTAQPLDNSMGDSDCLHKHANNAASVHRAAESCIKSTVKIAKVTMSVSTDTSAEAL

Take `CSC(=S)N1CC2(CCCCC2)CSC1=Nc1ccc(F)c2ccccc12` [Compound I-140]: the melting point fell in the range of 139 to 140 °C. The Ki in series [1] is 59 nM. Moreover, in series [2], the Ki was 0.8 nM. In addition, in series [3], the half-inhibitory concentration (IC50) turned out to be 27 nM.
As to `CSC(=S)N1CC(C(C)C)(C(C)C)CSC1=Nc1cccc2cc(OCC(=O)OC(C)(C)C)ccc12` [Compound I-77], the Ki was 35 nM in series [1] and 1.5 nM in series [2].
Take `CSC(=S)N1CC(C(C)C)(C(C)C)CSC1=Nc1cccc2ccccc12` [Compound I-27]: the melting point fell in the range of 121 to 122 °C. Also, the inhibition constant (Ki) in series [1] turned out to be 13 nM. Further, the Ki in series [2] came out at 0.3 nM. For the same compound, the IC50 in series [3] was 8.1 nM.
`CCCC1(CCC)CSC(=Nc2cccc3ccccc23)N(C(=S)SC)C1` [Compound I-22] came in with a melting point of 139 to 140.5 °C. In addition, the Ki in series [1] amounted to 20 nM. In addition, in series [2], the Ki turned out to be 1.5 nM.
Take `CSC(=O)N1CC(C(C)C)(C(C)C)CSC1=Nc1ccc(Cl)c2ccccc12` [Compound I-114]: the melting point lay in the range of 111.5 to 112.5 °C. The Ki in series [1] worked out at 25 nM. The Ki in series [2] is 5.9 nM. Also, the IC50 in series [3] worked out at 24 nM. Further, the IC50 in series [4] was found to be 48 nM.
`CSC(=S)N1CC(C(C)C)(C(C)C)CSC1=Nc1ccc(F)c2ccccc12` [Compound I-142] came in with a melting point of 118 to 119 °C. For the same compound, the Ki in series [1] came to 20 nM. The inhibition constant Ki in series [2] came to 1.2 nM. Further, the IC50 in series [3] is 14 nM.
The compound `CSC(=S)N1CC2(CCCCC2)CSC1=Nc1ccc(C#N)c2ccccc12` [Compound I-144] yielded a melting point of 164 to 165 °C. The Ki in series [1] amounted to 54 nM. For the same compound, the Ki in series [2] was 1 nM. In addition, the IC50 in series [3] was determined as 52 nM.
In turn, `CSC(=O)N1CC(C(C)C)(C(C)C)CSC1=Nc1cccc2ccccc12` [Compound I-29] gave a melting point of 98 to 99 °C. For the same compound, in series [1], the Ki amounted to 6 nM. Besides, the inhibition constant Ki in series [2] worked out at 1.7 nM. Moreover, in series [3], the IC50 is 17.5 nM. Further, the ED50 in series [5] (setting [7]) is 3.5 mg/kg. Moreover, in series [5] (setting [8]), the ED50 was 3.6 mg/kg.
As for `CCCC1(CCC)CSC(=Nc2cccc3ccccc23)N(C(=O)SC)C1` [Compound I-25], the melting point lay within 108.5 to 109.5 °C. In series [1], the Ki was 42.5 nM. In addition, the inhibition constant Ki in series [2] amounted to 1 nM.
With `CSC(=S)N1CC(C(C)C)(C(C)C)CSC1=Nc1ccc(N(C)C)c2ccccc12` [Compound I-43, 3-[(methylthio)thiocarbonyl]-2-(4-dimethylamino-1-naphthylimino)-5,5-diisopropyl-1,3-thiazine], the values for the inhibitory constant (Ki) in series [1] and in series [2] were 21.4 nM and 11.3 nM, respectively.
As to `C=CCC1(CC=C)CSC(=Nc2cccc3ccccc23)N(C(=S)SC)C1` [Compound I-28], the values for the inhibition constant (Ki) in series [1] and in series [2] were 31.4 nM and 4.8 nM, respectively.
Regarding `CSC(=S)N1CC2(CCCCC2)CSC1=Nc1ccc(Cl)c2ccccc12` [Compound I-33], the melting point fell in the range of 181 to 182 °C. Besides, the inhibitory constant (Ki) in series [1] was found to be 20.7 nM. Also, the Ki in series [2] was found to be 1.2 nM.
`CSC(=S)N1CC2(CCCCC2)CSC1=Nc1cccc2ccccc12` [Compound I-23, 3-[(methylthio)thiocarbonyl]-2-(1-naphthylimino)-5,5-pentamethylene-1,3-thiazine] gave a melting point of 118 to 119 °C. Besides, in series [1], the inhibition constant (Ki) worked out at 29.6 nM. Further, the inhibition constant Ki in series [2] stood at 6 nM. For the same compound, the IC50 in series [3] worked out at 10.4 nM. In addition, the concentration for half-maximal inhibition (IC50) in series [4] was determined as 1.7 nM. In series [5] (setting [7]), the ED50 turned out to be 1 mg/kg. Moreover, the ED50 in series [5] (setting [8]) was found to be 1.5 mg/kg. Further, in series [6], the ED50 stood at 0.54 mg/kg.
For `CSC(=S)N1CC(C(C)C)(C(C)C)CSC1=Nc1ccc(Cl)c2ccccc12` [Compound I-113], the melting point lay within 86.5 to 87.5 °C. Further, in series [1], the Ki turned out to be 10 nM. Moreover, the Ki in series [2] stood at 0.9 nM. Moreover, the half-maximal inhibitory concentration (IC50) in series [3] was determined as 13 nM. In addition, the IC50 in series [4] turned out to be 1.5 nM.
As for `CSC(=O)N1CC(C(C)C)(C(C)C)CSC1=Nc1ccc(F)c2ccccc12` [Compound I-143], the melting point lay in the range of 109 to 110 °C. Moreover, the Ki in series [1] was 29 nM. In addition, in series [2], the inhibitory constant (Ki) is 1.4 nM. Moreover, in series [3], the IC50 turned out to be 35 nM.
